# Experimental data taken from patent US20100210649A1, “PYRIDAZINONES AND FURAN-CONTAINING COMPOUNDS” (Sloan-Kettering Institute for Cancer Research, priority 2006, published 2010).
# Read-outs that look alike come from different tables or passages of the source.
# Experiments:
# [1] = test system: H1650; test: Non Small Cell Lung Cancer proliferation assay (Alamar Blue reduction), H1650; format: cell-based, human; conditions: Homo sapiens
# How it was run: (§1)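 Human NSCLC cells were seeded at 250 cells/well with compound at a final 1% DMSO and treated for 48 hours at 37° C. 1% DMSO served as the high control.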
# [2] = test system: H1975; test: Non Small Cell Lung Cancer proliferation assay (Alamar Blue reduction), H1975; format: cell-based, human; conditions: Homo sapiens
# How it was run: as §1
# [3] = test system: H2030; test: Non Small Cell Lung Cancer proliferation assay (Alamar Blue reduction), H2030; format: cell-based, human; conditions: Homo sapiens
# How it was run: as §1
# [4] = test system: H3255; test: Non Small Cell Lung Cancer proliferation assay (Alamar Blue reduction), H3255; format: cell-based, human; conditions: Homo sapiens
# How it was run: as §1
# [5] = test system: H358; test: Non Small Cell Lung Cancer proliferation assay (Alamar Blue reduction), H358; format: cell-based; conditions: Homo sapiens
# Procedure: These cells have a doubling time of 1-2 days. All cell types are adherent and grow in colonies. The cells should be kept at a density between 50,000 cells/mL -500,000 cells/mL to provide for optimum growth and adequate nutrition. The cell line should be maintained at 37° C. in a humidified atmosphere with 5% CO2 in a sterile cell culture incubator.
# Non Small Cell Lung Cancer Proliferation Assay.
# High Controls for this assay are made by treating Non Small Cell Lung Cancer cells with 5 ul of 10% DMSO. [Final concentration in this assay is 1% DMSO].
# Important Note: All compounds for testing in this assay should be done at the final concentration of 1% DMSO.
# After addition, the cells are placed in cell culture incubator at 37° C. for 48 hours for complete treatment.
# After drug treatment, cytotoxicity is measured by Alamar Blue reduction.
# The cells are incubated for 48 hours at 37° C. to complete the Alamar Blue reduction.
# The final step in the assay is to measure the amount of Alamar Blue reduction. […] The Alamar Blue fluorescence is measured at an excitation of 530 nm and emission of 590 nm.
# For the NSCLC project, the cell based assay was screened against a small molecule library of approximately 200,000 compounds. The compound library is stored in our automated robotic freezer (Biophile) at −20° C. in 100% DMSO. Compound freeze and thaw cycles are kept to a minimum. […] This assay was performed on a fully automated linear track robotic platform (CRS F3 Robot System, Thermo Electron Corp., Ontario, Canada) utilizing several integrated peripherals for plate handling, liquid dispensing, and readout detection. […] The microplates are then placed at 37° C. for 48 hours to complete treatment of cells with compounds. Next, 5 ul of alamar blue was added using a liquid dispenser (Flexprop Precision Dispenser, Perkin Elmer, Mass., USA) and incubated for 48 hours at 37° C. The alamar blue prompt fluorescence was measured on Victor V (Victor^3 V, Perkin Elmer, Mass., USA) and output data files were loaded into ORIS (Oncology Research Informatics System, MSKCC, NY, USA), a screening data acquisition and analysis platform.
# (§2) The dose response studies were done with the following standard procedure. First, the cells were counted and dispensed at 250 cells/well into 384-well microplates with compound. The cells were incubated for 48 hours at 37 C to complete treatment, and then alamar blue was added for an additional 48 hours. Finally, alamar blue reduction was measured and the data was loaded into ORIS, our data screening acquisition platform.
# [6] = in vitro; conditions: human
# Procedure: NHBE (normal human bronchiolar epithelial cells) are primary cells obtained from donor lungs and commercially available from Cambrex. The HPL1D (human peripheral lung epithelial) cell line has been immortalized with the SV40 large T-antigen. WI-38: human lung fibroblast cell line. HPLID, NHBE and WI-38 cells will serve as controls in the chemical screens. WT: wildtype; WT*: over-expressed wildtype.
# Compounds were tested in dose response studies from […] to 5 nM against several non small cell lung cancer lines: H358, H827, H1118, H1650, H1734, H1975, H2030, and H3255, and were also studied in a 72 hour cytotoxicity assay against the NHBE and WI-38 cell lines.
# [7] = test system: HPL1D (human peripheral lung epithelial) cell line; test: Cell proliferation / dose response (Alamar Blue), HPL1D; format: cell-based; conditions: read-out: IC50 HPL1D
# Procedure: WI-38: human lung fibroblast cell line. […] WT: wildtype; WT*: over-expressed wildtype. Dose response studies against 34 compounds from the pyridazinone and phenylfuran-carboxamide class were conducted. […] In addition, Tarceva was included in these dose response studies. The dose response studies were done with the following standard procedure. […] The cells were incubated for 48 hours at 37 C to complete treatment, and then alamar blue was added for an additional 48 hours. Finally, alamar blue reduction was measured and the data was loaded into ORIS, our data screening acquisition platform.
# [8] = test system: H820; test: Dose response study (Alamar Blue), H820; format: cell-based; conditions: Homo sapiens, read-out: IC50 H820
# Procedure: (§3) Dose response studies against 34 compounds from the pyridazinone and phenylfuran-carboxamide class were conducted. […] In addition, Tarceva was included in these dose response studies.
# as §2
# [9] = test system: PC9; test: Dose response study (Alamar Blue), PC9; format: cell-based; conditions: Homo sapiens, read-out: IC50 PC9
# Procedure: as §3, §2
# [10] = test system: A549; test: Dose response study (Alamar Blue), A549; format: cell-based; conditions: Homo sapiens, read-out: IC50 A549
# Procedure: as §3, §2
# [11] = test system: H2122; test: Dose response study (Alamar Blue), H2122; format: cell-based; conditions: Homo sapiens, read-out: IC50 H2122
# Procedure: as §3, §2
# [12] = NCI-H1650, 48 h, H1650, 12 point doubling dilution 10 uM to 5 nM, 48 h treatment, alamar blue additional 48 h, read-out: IC50 H1650
# [13] = NCI-H1650, dose response 10 M to 5 nM, IC50, read-out: Dose Response (uM) H1650
# [14] = NCI-H1975, 48 h, H1975, 12 point doubling dilution 10 uM to 5 nM, 48 h treatment, alamar blue additional 48 h, read-out: IC50 H1975
# [15] = NCI-H1975, dose response 10 M to 5 nM, IC50, read-out: Dose Response (uM) H1975
# [16] = NCI-H2030, 48 h, H2030, 12 point doubling dilution 10 uM to 5 nM, 48 h treatment, alamar blue additional 48 h, read-out: IC50 H2030
# [17] = NCI-H2030, dose response 10 M to 5 nM, IC50, read-out: Dose Response (uM) H2030
# [18] = NCI-H3255, 48 h, H3255, 12 point doubling dilution 10 uM to 5 nM, 48 h treatment, alamar blue additional 48 h, read-out: IC50 H3255
# [19] = NCI-H3255, dose response 10 M to 5 nM, IC50, read-out: Dose Response (uM) H3255
# [20] = NCI-H358, H358, 12 point doubling dilution 10 uM to 5 nM, 48 h treatment, alamar blue additional 48 h, read-out: IC50 H358
# [21] = NCI-H358, read-out: Dose Response (uM) H358
# [22] = HPL1D, 12 point doubling dilution 10 uM to 5 nM, 48 h treatment, alamar blue additional 48 h
# [23] = NCI-H820, H820, 12 point doubling dilution 10 uM to 5 nM, 48 h treatment, alamar blue additional 48 h
# [24] = PC-9, PC9, 12 point doubling dilution 10 uM to 5 nM, 48 h treatment, alamar blue additional 48 h
# [25] = A549, 12 point doubling dilution 10 uM to 5 nM, 48 h treatment, alamar blue additional 48 h
# [26] = NCI-H2122, H2122, 12 point doubling dilution 10 uM to 5 nM, 48 h treatment, alamar blue additional 48 h
Structure (SMILES),"IC50 [1, 12] [µM]","IC50 [1, 13] [µM]","IC50 [2, 14] [µM]","IC50 [2, 15] [µM]","IC50 [3, 16] [µM]","IC50 [3, 17] [µM]","IC50 [4, 18] [µM]","IC50 [4, 19] [µM]","IC50 [5, 20] [µM]","IC50 [5, 21] [µM]","IC50 [8, 23] [nM]","IC50 [9, 24] [nM]","IC50 [10, 25] [nM]","IC50 [11, 26] [nM]",IC50 at 72 h ([6]; CytoTox (uM) NHBE) [µM],IC50 at 72 h ([6]; CytoTox (uM) WI-38) [µM],"IC50 [7, 22] [nM]",further results
O=c1c(Cl)c(Cl)cnn1-c1ccccc1 [compound 257014],1.64,3.18,0.36,0.29,0.41,0.55,1.5,1.36,–,–,–,–,–,–,3.29,6.93,–,"IC50 ([5]; NCI-H358, 48 h, H358, 12 point doubling dilution 10 uM to 5 nM, 48 h treatment, alamar blue additional 48 h, read-out: IC50 H358): 0.68 µM; IC50 ([5]; NCI-H358, dose response 10 M to 5 nM, IC50, read-out: Dose Response (uM) H358): 0.31 µM; IC50 ([7]; 48 h): 380 nM; IC50 ([8]; NCI-H820, 48 h): 240 nM; IC50 ([9]; PC-9, 48 h): 830 nM; IC50 ([10]; A549, 48 h): 1680 nM; IC50 ([11]; NCI-H2122, 48 h): 1160 nM"
Cc1ccc(-n2ncc(Cl)c(Cl)c2=O)cc1 [compound 257016],2.49,2.73,0.47,0.32,0.51,0.65,1.53,1.32,0.78,0.35,370,1130,2630,2070,3.29,6.43,480,–
Cc1ccc(-n2ncc(Cl)c(Cl)c2=O)cc1C [compound 257019],4.15,2.4,0.89,0.29,0.8,0.53,2.01,1.23,0.79,0.24,670,1980,4200,4380,3.24,7.02,620,–
Cc1cc(C)cc(-n2ncc(Cl)c(Cl)c2=O)c1 [compound 257020],2.58,2.1,0.58,0.27,0.57,0.56,1.35,0.92,0.62,0.22,450,1550,2870,2210,3.18,6.78,410,–
COc1nn(-c2cccc(C)c2)c(=O)c(Cl)c1Cl [compound 257028],3.04,2.04,1.18,0.65,1.79,1.26,2.38,1.76,1.83,0.94,770,2400,3760,4040,5.24,7.52,1930,–

# Continued, in another order:
"IC50 [1, 12] [µM]","IC50 [1, 13] [µM]","IC50 [2, 14] [µM]","IC50 [2, 15] [µM]","IC50 [3, 16] [µM]","IC50 [3, 17] [µM]","IC50 [4, 18] [µM]","IC50 [4, 19] [µM]","IC50 [5, 20] [µM]","IC50 [5, 21] [µM]","IC50 [8, 23] [nM]","IC50 [9, 24] [nM]","IC50 [10, 25] [nM]","IC50 [11, 26] [nM]",Structure (SMILES),IC50 at 72 h ([6]; CytoTox (uM) NHBE) [µM],IC50 at 72 h ([6]; CytoTox (uM) WI-38) [µM],"IC50 [7, 22] [nM]",further results
0.8,1.44,0.31,0.16,0.32,0.34,0.66,0.73,0.32,0.12,280,900,1190,1500,O=c1c(Cl)c(Cl)cnn1-c1cccc(C(F)(F)F)c1 [compound 176729],2.76,3.42,250,"inhibition at 10 µM ([1]; NCI-H1650, primary screening, 10 μM compound in 1% DMSO (v/v), read-out: percentage inhibition H1650): 100%; inhibition at 10 µM ([2]; NCI-H1975, primary screening, 10 μM compound in 1% DMSO (v/v), read-out: percentage inhibition H1975): 102%; inhibition at 10 µM ([3]; NCI-H2030, primary screening, 10 μM compound in 1% DMSO (v/v), read-out: percentage inhibition H2030): -3%; inhibition at 10 µM ([4]; NCI-H3255, primary screening, 10 μM compound in 1% DMSO (v/v), read-out: percentage inhibition H3255): 115%"
0.92,1.14,0.32,0.16,0.31,0.39,0.76,0.62,0.43,0.16,220,710,1200,1260,O=c1c(Br)c(Br)cnn1-c1ccccc1 [compound 257015],2.38,3.03,300,–
1.69,2.42,0.54,0.35,0.9,0.89,1.86,1.63,1.13,0.55,340,1570,2270,2160,Cc1cccc(-n2ncc(Cl)c(Cl)c2=O)c1C [compound 257018],3.89,7.35,1300,–
